Source: patent US11279708B2, “Amidino- and amino-rocaglates as novel translation inhibitors and anticancer agents” (priority 2019, dated 2022)

Assays:
[1] = tested on: eIF4A-dependent translation; assay: in vitro translation assay, bicistronic FF/HCV/Ren reporter mRNA in Krebs-2 extracts; type: biochemical; conditions: screen at 2 μM compound
Procedure: Structure-Activity Relationships. With a number of amidino-rocaglates and amino-rocaglates in hand, we evaluated their inhibition of eIF4A-dependent translation using an in vitro assay as depicted in FIG. 14, where a bicistronic reporter mRNA was designed for translation in Krebs-2 extracts. In FIG. 14 the following description applies (a) IC50 was determined from fitted sigmoid curves; […] indicates the concentration of compound that inhibits cap-dependent translation by 50%, which was normalized by cap-independent translation. For its determination, the bicistronic reporter FF/HCV/Ren mRNA was used to produce Firefly luciferase (cap-dependent) and Renilla luciferase (cap-independent) in Krebs-2 extracts in the presence of indicated compounds at various concentrations. In particular, translation of Firefly luciferase (FF) is cap-dependent and depends on eIF4A activity; in contrast, translation of Renilla luciferase (REN) utilizes the HCV internal ribosome entry site (IRES) which functions independently of eIF4A. IC50's were determined by the inhibition of FF relative to REN obtained in the presence of compound relative to vehicle controls and normalized to REN as an internal control. […] In accordance with the eIF4A-RNA-rocaglamide (2) co-crystallographic analysis (FIG. 4), the amide carbonyl of 2 interacts with Gln195 of eIF4A as a H-bond acceptor, while the tertiary hydroxyl of 2 serves as a H-bond donor to an RNA base. […] To further verify the hypothesis, amidino-rocaglates (pKa of N—H˜26.7-30.7 in DMSO, strong H-bond donors) and amino-rocaglates (pKa of N—H˜36 to 44 in DMSO, weak H-bond donors) were next evaluated. […] Conversely, benzyl amidine 9e had IC50=60 nM, whereas the methylene tether may allow conformational adjustment to avoid rigid repulsion in the binding pocket.
The rocaglate collection was also tested in in vitro translation assays using cell-free extracts with a previously described bicistronic mRNA containing the HCV IRES, which is not dependent on eIF4A activity and served as an internal control (FIG. 19C).
In Vitro Translation Assays. In vitro translation assays performed in Krebs-2 cell extracts were supplemented with 5 mM MgCl2, 30 mM Tris-HCl (pH 7.5), 1.5 mM ATP, 0.1 mM GTP, 0.6 mM CTP, 10 mM dipotassium creatine phosphate, 80 μg/mL creatine kinase, and 0.04 mM amino acids. The specified mRNA reporters were added to each reaction at a final concentration of 10 ng/μL. The translation reactions were incubated with or without compound for 60 minutes at 30° C. prior to the measurement of luciferase activities.
FIGS. 19A-19C. Rocaglate activity profiling. 19A. Assessing eIF4A1:poly r(AG)8 (SEQ ID NO: 2) RNA binding by FP in the presence of 10 μM rocaglate. Values are expressed relative to vehicle controls and data is rank ordered. n=3±SD. 19B. The change in polarization obtained with eIF4A1:poly r(AG)8 (SEQ ID NO: 2) and eIF4A2:poly r(AG)8 (SEQ ID NO: 2) RNA. Pearson r=0.814; p<0.0001. 19C. Inhibition of cap-dependent translation by rocaglates was measured using the indicated mRNA bicistronic reporter (4 ng/ul) in Krebs-2 extracts at a final compound concentration of 2 μM. n=3±SD.
FIG. 35A-35E are plots showing dose-response curve of FF-HCV-Ren mRNA translation in Krebs extracts with IC50s shown for inhibition of cap-dependent protein synthesis. Values are plotted relative to DMSO controls. n=2 technical replicates performed in duplicate.

NIH/3T3 cells = assay: Sulforhodamine B (SRB) cytotoxicity assay; type: cell-based; conditions: 40 nM, 4 days
Procedure: In cellula activity of rocaglates. All compounds in the rocaglate collection were assessed for cytotoxic activity towards NIH/3T3 cells as well as the rocaglate-resistant line, eIF4A^em1JP, which harbors an F163L mutation in eIF4A1. This mutation was originally identified following selection for RocA-resistant yeast mutants and F163 was subsequently shown to be critical for stacking with ring C of RocA (2) (FIG. 4). Although eIF4A2 is also a target of rocaglates, eIF4A1 F163L is sufficient to confer resistance to rocaglate-induced translation inhibition and cytotoxicity, likely due to eIF4A1 being the more abundant isoform in NIH/3T3 cells (250-fold higher). […] Lastly, although effective at inhibiting cap-dependent translation in vitro, WGD-57-591 (no activity @ 40 nM) and WGD-57-590 (12% growth inhibition @ 40 nM) performed poorly in this assay.
Sulforhodamine B (SRB) assay. NIH/3T3 cells were seeded at a density of 1000 cells/well in a 96 well format and incubated in presence of each 40 nM compound. After 4 days of culture, cells were washed with PBS, fixed with 50% trichloroacetic (TCA) acid for 1 hour, and then stained with 0.5% sulforhodamine B in 1% acetic acid for 15 min. Plates were then washed 5 times with 1% acetic acid, dried, and the stained wells were resuspended with 10 mM Tris (pH 9) prior to measuring the absorbance at 510 nm using (Spectramax M5, Molecular Devices)
FIGS. 26A-26B. In cellula activity of rocaglates. 26A. Cytotoxicity of rocaglates towards NIH/3T3 (grey circle) and the NIH/3T3 rocaglate-resistant line, eIF4A^em1JP(redtriangle). Cells were exposed to 40 nM compound for 4 days and viability was measured using the SRB assay. n=3±SD. 26B. Rocaglates show different sequence preferences for inhibiting cap-dependent translation in cellula. HEK 293 cells were transfected with 0.5 μg of in vitro synthesized capped (AG)10-FF/HCV/Ren or (UC)10-FF/HCV/Ren mRNA and 1h later exposed to the indicated concentrations of compounds for an additional 6 h, at which time extracts were prepared and luciferase activity measured. n=3 SD.

[2] = tested on: MDA-MB-231 breast cancer cells; assay: SRB cell viability assay; type: cell-based; conditions: MDA-MB-231, SRB assay; read-out: IC50, cytotoxicity
Source text: Translation Inhibition by Amidino-Rocaglates Induces Cytotoxicity. We next evaluated amidino-rocaglates in an SRB cell viability assay using MDA-MB-231 breast cancer cells for cellular readout of translation inhibition (FIG. 16). In particular, (−)-9b, (−)-9aa, and (+)-9aa were compared with rocaglate hydroxamate (−)-23. […] The inspiring high-potency of amidino-rocaglates underscores their utility as promising agents for anticancer treatment combined with the appropriate formulation and drug-delivery strategies. […] Meanwhile, amide carbonyls of 9z and 9aa served as H-bond acceptors likely improving interactions with Gln195 of eIF4A, although this awaits structural confirmation. […] Our studies further illustrate the power of chemical synthesis enabling structural and biological improvement of complex natural products using targeted modifications. Additional biological studies of amidino-, amino-rocaglates, and related compounds including RNA binding studies are currently in progress and will be reported in due course.

COC(=O)[C@@H]1[C@@H](c2ccccc2)[C@]2(c3ccc(OC)cc3)Oc3cc(OC)cc(OC)c3[C@@]23NC(C2CC2)=N[C@@]13O [9n]
inhibition of cap-dependent translation in vitro (in words) [1]: comparable potency to SDS-1-021 | rank among the top 15 cytotoxic rocaglates (NIH/3T3 cells): 15th

COC(=O)[C@@H]1[C@@H](c2ccccc2)[C@]2(c3ccc(OC)cc3)Oc3cc(OC)cc(OC)c3[C@@]23N=C(C)N[C@@]13O [(−)-9b]
IC50 [2]: 3.5 nM
